Reference: patent publication US11325884B2, “Ketone inhibitors of lysine gingipain” (CORTEXYME, INC., priority 2016, dated 2022)

Tests used:
Kgp [1] = target: T1, Kgp (Porphyromonas gingivalis (Bacteroides gingivalis), UniProt Q51817); experiment: Activity probe labeling of Kgp in P. gingivalis-infected Jurkat cells; assay type: cell-based
Excerpt: The identity of this labeled protein in P. gingivalis-infected cells was confirmed to be Kgp by Western blot.

[2] = in vivo, po; cited from earlier work
[3] = Oral pharmacokinetics in CD-1 mice; assay type: in vivo; conditions: male CD-1 mice, p.o. 10 mg/kg; for oral availability / plasma concentrations: as compared to reference compound 73
P. gingivalis W83 = experiment: Experimental periodontitis / P. gingivalis infection mouse model; assay type: in vivo, BALB/C female mice; conditions: for alveolar bone loss: week 5-10, vs vehicle; for reduction in P. gingivalis DNA copy number (RgpB gene) in brain tissue: between week 5 and 10
Excerpt: P. gingivalis applied over several weeks directly to the gingiva of mice has been used as a model for periodontitis. Alveolar bone resorption, a hallmark of periodontitis progression, is typically observed when this model employed. More recently, use of the model has also led to the discovery of a significant amount P. gingivalis in the brain, which accumulates concomitantly with oral colonization and which subsequently leads to detrimental effects such as inflammation and loss of hippocampal neurons.
At the beginning of the study, eight week old BALB/C female mice received antibiotic in drinking water (sulfamethoxazolum 0.87 mg/mL, trimethoprimum 0.17 mg/mL) for 10 days to reduce microbiome protection from experiment infection. Experimental periodontitis was induced by ligature placement followed by multiple exposures to P. gingivalis. During the ligature procedure mice were anesthetized with an intraperitoneal injection of ketamine (200 mg/kg) and xylazine (10 mg/kg), and eyes were lubricated with ointment (Puralube Vet; Pharmaderm, Melville, N.Y.). Next, a 5-0 silk ligature (Roboz Surgical Instrument Co.) was tied around the upper maxillary left and right second molar. Sutures were applied and tied gently to prevent damage to the periodontal tissue.
Mice (n=8-10/arm) were infected for 6 weeks every other day. For infection, 100 μL of bacteria solution were applied topically to the buccal surface of the maxillae. For preparation of the bacteria, P. gingivalis W83 (ATCC, Rockville, Md.) was streaked on Tryptic Soy Broth (TSB) agar plates (5% sheep blood, supplemented with 0.5 mg/mL L-cysteine, 5 μg/mL hemin, and 0.5 μg/mL vitamin K) and grown under anaerobic conditions at 37° C. for 5-7 days. Samples were then inoculated in TSB with hemin, vitamin K and L-cysteine (TSB-HKC) until mid-log phase (OD600=0.5-0.7). Bacteria were washed in PBS and prepared at final concentration of 1×10^10 cells/mL in PBS+2% methylcellulose (CMC).
Vehicle-treated animals received PBS only. At 5 weeks, a subgroup of animals (n=16) were euthanized to gather baseline measurements before the start of treatment. After 10 weeks, mice were euthanized and the brain, serum, and maxillary tissues were harvested and frozen in liquid nitrogen.
Bone loss in the maxillae was measured ex vivo blinded using OsiriX MD software (PixmeoSARL, Bernex, Switzerland). Point of measurements were obtained using 3D Multi Planar Reconstruction (MPR) view where the maxillae were sliced straight along the superficial roots of second molar and the posterior root of first molar, with a tangent of the anterior root of the first molar. The distance between the cementoenamel junction (CEJ) and the alveolar bone crest (ABC) was measured from the CEJ to a reference line on the ABC which was placed perpendicular to the superficial root one each side of the second molar. […] (ANOVA: F (5, 24)=15.71, p<0.0001; t-test with Bonferroni correction: **p<0.005, ***p<0.001).
DNA was extracted from brain tissue using the DNeasyBLOOD & TISSUE KIT (Qiagen, Germany) according to manufacturer's protocol. Taqman qPCR was performed with Kapa Probe fast qPCR Mix (Rox Low) on a Bio-Rad CFX96 Real-Time System C1000 Touch ThermalCycler with forward and reverse primers, and a detection probe. The primers were based on a single copy of P. gingivalis arginine-specific cysteine-proteinase gene. Duplicate samples were assayed in a total volume of 10 μL, containing 100 ng of template brain genomic DNA solution, TaqMan Universal PCR Master Mix (2×) (Kapa Biosystems, USA), and the specific set of primers (final concentration 5 μM) and probe (final concentration 4 μM) (GenoMed, Poland), corresponding to 562.5 nM for the forward and reverse primers and 100 nM for the probe primer. After an initial incubation step of 2 min at 50° C. and denaturation for 95° C. for 20 sec, 40 PCR cycles (95° C. for 20 s, 60° C. for 30 sec) were performed. […]

P. gingivalis infection = experiment: Related studies: brain abeta42 and neuroinflammation; assay type: in vivo
Excerpt: By inhibiting Kgp, the compounds disclosed herein can treat P. gingivalis infection itself, as well as the detrimental effects of neurological disease and other infection-associated conditions.

Kgp [4] = target: T1, Kgp; experiment: Detection of Kgp with Cy5 activity-based probe (SDS-PAGE, Cy5 visualization); assay type: binding; conditions: 100 nM preincubation, P. gingivalis W83
Procedure: It has a warhead that binds to the Kgp active site, a peptide-based core, and a Cy5 fluorophore for detection. Labeled target proteins can be visualized by biochemical separation of a sample with fractionation by 2-D gel electrophoresis and detection of fluorescent signals from Cy5 at the appropriate excitation and emission wavelength. Incubation of a fixed concentration of the probe following binding of Kgp to a test compound (e.g., a candidate Kgp inhibitor) results in binding of the activity probe to Kgp active sites not already bound by the test compound.
Preparation of P. gingivalis lysate. 10^8 bacteria were collected and centrifuged at 5000 g for 10 min at 4° C., and the supernatant was discarded. The bacterial cell pellet was lysed with 1 mL of B-Per lysis buffer (Thermo Fischer) on ice for 10 min, then centrifuged for 10 min at 14000 g, 4° C. Supernatant-containing protein lysate was collected. Biological samples were lysed with B-Per lysis buffer for 10 min at 4° C.
Cy5 direct labeling of Kgp. Biological samples, P. gingivalis lysate or purified Kgp were incubated with quenchable Cy5 probe compound 71 (1 μM) for 1 h at 37° C. with shaking. […]

lysine gingipain (Kgp) = lysine gingipain (Kgp) (Porphyromonas gingivalis (strain ATCC 33277 / DSM 20709 / CIP 103683 / JCM 12257 / NCTC 11834 / 2561), UniProt B2RLK2); experiment: Inhibition of lysine gingipain, fluorogenic assay (Z-His-Glu-Lys-MCA); assay type: biochemical; conditions: as compared to reference compound 73
Procedure: The specific assay conditions were as follows. Buffer: pH=7.5, 100 mM Tris-HCl, 75 mM NaCl, 2.5 mM CaCl2, 10 mM cysteine, 1% DMSO after all additions. Protein: 0.1 nM Kgp, isolated from culture of Porphyromonas gingivalis, as described by Pike et al. (J. Biol. Chem. 1994, 269(1), 406), and Potempa and Nguyen (Current Protocols in Protein Science. 2007, 21.20.1-21.20.27). Fluorogenic substrate: 10 μM Z-His-Glu-Lys-MCA. Time=90 minutes. Temperature=37° C.
Further assays to measure the inhibitory activity of compounds of the present invention against Kgp and cathepsins B, H, K, L, and S were conducted as described in Example 66. The capacities of the compounds to inhibit the activity of cathepsins F, V, and Z were also measured.

With C[N+]1=C(/C=C/C=C/C=C2\N(CCCCCC(=O)NCc3cn(-c4cccc(C(=O)N[C@@H](CCCCN)C(=O)COc5c(F)cccc5F)c4)nn3)c3ccc(S(=O)(=O)O)cc3C2(C)C)C(C)(C)c2cc(S(=O)(=O)O)ccc21 [Compound 70] the “effect of preincubation on binding of probe 15a to Kgp” value (Kgp [1]; infected Jurkat cells, preincubation 1 hour) was “blocked the binding”.

For CC1=CC(C)=[N+]2C1=Cc1ccc(CCC(=O)NCc3cn(-c4cccc(C(=O)NC(CCCCN)C(=O)COc5c(F)cccc5F)c4)nn3)n1[B-]2(F)F (stereo not shown) [Compound 15a], the “binding to purified Kgp and to Kgp in infected cells” value (Kgp [1]; FIG. 6A) was “irreversibly binds”.

In the case of CN(NC(=O)CC[C@H](NC(=O)OCc1ccccc1)C(=O)N[C@@H](CCCCN)C(=O)C(=O)NCc1ccccc1)c1ccccc1 [Kyt-36], the half-life [2] is listed as “increases”.

For NCCCC[C@H](NC(=O)C1CCCC1)C(=O)COc1c(F)ccc(F)c1F [Compound 1, (S)—N-(7-amino-2-oxo-1-(2,3,6-trifluorophenoxy)heptan-3-yl)cyclopentanecarboxamide], the oral availability [3] was “improved”, the plasma concentrations [3] was “increased” and the alveolar bone loss (P. gingivalis W83; 3 mg/kg orally b.i.d.) was “trended to improvement but did not result in significant improvement”. For the same compound, the “reduction in P. gingivalis DNA copy number (RgpB gene) in brain tissue” value (P. gingivalis W83; 3 mg/kg) was 50%, the alveolar bone loss (P. gingivalis W83; 10 mg/kg orally b.i.d.) was “improved” and the “reduction in P. gingivalis DNA copy number (RgpB gene) in brain tissue” value (P. gingivalis W83; 10 mg/kg) was 50%. The alveolar bone loss (P. gingivalis W83; 30 mg/kg orally b.i.d.) was “improved”, the “reduction in P. gingivalis DNA copy number (RgpB gene) in brain tissue” value (P. gingivalis W83; 30 mg/kg) was 80% and the “GAD67 positive interneurons in the dentate gyrus” value (P. gingivalis W83; 10 weeks, infected untreated mice lost 25%) was “at the same level as the GAD67^+ cells in the mock-infected mice”. The “induction of brain abeta42” value (P. gingivalis infection) was “reduce”, the neuroinflammation (P. gingivalis infection) was “reduce” and the “competition for Kgp active site binding with probe compound 71” value (Kgp [4]) was “competes for active site binding”.

In the case of COC(C)(C)C(=O)N[C@@H](CCCCN)C(=O)COC(C(F)(F)F)C(F)(F)F [Compound 69, (S)—N-(7-amino-1-((1,1,1,3,3,3-hexafluoropropan-2-yl)oxy)-2-oxoheptan-3-yl)-2-methoxy-2-methylpropanamide], the “selectivity for Kgp over endogenous cathepsins” value (lysine gingipain (Kgp)) is reported as “far more selective”, the “concentrations in the brain and cerebrospinal fluid (CSF)” value [3] is reported as “increased” and the oral availability [3] is reported as “improved”. For the same compound, the plasma concentrations [3] was “increased”.
